From patent US20170314007A1, “MEDICAMENT DESIGN POCKET OF ORNITHINE DECARBOXYLASE AND APPLICATION OF MEDICAMENT DESIGN POCKET” (CHINA THREE GORGES UNIVERSITY, priority 2014, published 2017)

Target: T1, human ODC (Homo sapiens, UniProt P11926)
T1 construct: His tag (from pET28a); made in house; host or cells: Escherichia coli BL21
T1 sequence (P11926 1-461): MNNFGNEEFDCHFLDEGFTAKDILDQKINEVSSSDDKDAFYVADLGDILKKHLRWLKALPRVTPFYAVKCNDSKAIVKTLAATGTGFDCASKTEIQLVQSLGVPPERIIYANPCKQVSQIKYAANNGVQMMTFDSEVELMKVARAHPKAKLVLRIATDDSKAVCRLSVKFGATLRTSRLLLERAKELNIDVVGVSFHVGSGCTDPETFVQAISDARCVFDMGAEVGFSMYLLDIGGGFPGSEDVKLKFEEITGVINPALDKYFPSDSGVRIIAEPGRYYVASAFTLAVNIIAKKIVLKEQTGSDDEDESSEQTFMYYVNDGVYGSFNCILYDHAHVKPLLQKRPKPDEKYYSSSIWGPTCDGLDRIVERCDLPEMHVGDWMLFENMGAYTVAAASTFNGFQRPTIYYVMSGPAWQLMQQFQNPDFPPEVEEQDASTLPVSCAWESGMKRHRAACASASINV
Experiment: Detection of inhibitory activity of inhibitor for human ODC protein (absorbance at 426 nm, ODC inhibition ratio)
Format: biochemical
Conditions: for inhibitory capacity on human ODC compared with DFMO: 1 mM of the medicament, comparison of histograms with DFMO inhibitor
Procedure: 400 uL substrate reaction mixture and 50 ug ODC protein are added to EP tube, mixed evenly, and the EP tube is placed in 37° C. water bath for 30 min; 400 uL 10% TDA is added to terminate the reaction, centrifuged 5 min at 5000 rpm at room temperature, then 100 uL supernatant is fetched and mixed with 200 uL of 4 mol/L NaOH, 400 uL of n-amyl alcohol is added to mix well, centrifuged 5min at 2000 rpm, then 200 uL of the supernatant is transferred to a new EP tube, and 200 uL of 0.1 mol/L sodium tetraborate (pH 8.0) is added to mix evenly, and 200 uL of 10 mmol/L trinitrobenzene sulfonic acid is added to mix fully, and then 400 uL DMSO is added to fix fully for 1 min, centrifuged 5 min at 3000 rpm; finally the supernatant is fetched to 96-well plate and its absorbance at 426 nm is detected by a microplate reader, to get the OD value with out adding […];
According to the method described in step 4), after adding 400 μL substrate reaction mixture, the ODC inhibitor is added immediately, and subsequent procedures are the same as the step 4);
The ODC inhibition ratio is calculated according to the following formula;
Control difference=the mean OD value of the control group adding the inhibitor−the mean OD value of the control group without adding inhibitor, of which, the inhibitor added in step 5) in the control group is DFMO inhibitor;
Experimental difference= the mean OD value of the experiment group adding the inhibitor−the mean OD value of the experiment group without adding inhibitor.
ODC inhibition ratio=[(control difference-experimental difference)/control difference]×100%.
The substrate reaction mixture in step 4): dissolve 17.57 ul β-mercaptoethanol, 55.84mg of 1.5 mM EDTA disodium salt, 75 nM PLP stock solution and 2 mM ornithine hydrochloride in 150 mM PBS (pH 7.1).
400 uL substrate reaction mixture (17.57 ul of β-mercaptoethanol, 55.84 mg of 1.5 mM EDTA disodium salt, 75 nM PLP stock solution, 2 mM ornithine hydrochloride are dissolved in 150 mM PBS (pH 7.1)) and 50 ug ODC protein are added to a 1.5 mL of EP tube, mixed evenly, and the EP tube is placed in 37° C water bath for 30 min; 400 uL 10% TDA is added to terminate the reaction, centrifuged 5 min at 5000 rpm at room temperature, then 100 uL supernatant is fetched and mixed with 200 uL of 4 mol/L NaOH, 400 uL of n-amyl alcohol is added to mix well, centrifuged 5 min at 2000 rpm then 200 uL of the supernatant is transferred to a new EP tube, and 200 uL of sodium tetraborate (0.1 mol/L, pH 8.0) is added to mix evenly, and 200 uL of 10 mmol/L trinitrobenzene sulfonic acid is added to mix fully, and then 400 uL DMSO is added to fix fully for 1 min, centrifuged 5 min at 3000 rpm, finally the supernatant is fetched to 96-well plate and its absorbance at 426 nm is detected by a microplate reader. […]

SMILES	inhibitory capacity on human ODC compared with DFMO	also measured
CCOC(=O)c1cccc(NC(=O)c2ccccc2)c1 [D17, ethyl-3-(benzoylamino) methyl benzoate]	equivalent to that of 2.5 mM DFMO	
COc1ccc(C(=O)C[n+]2ccccc2/C=N/[O-])cc1 [D19, 2-[(hydroxyimino)methyl]-1-[2-(4-methoxyphenyl)-2-oxoethyl] pyridinium]	equivalent to that of 2.5 mM DFMO	
CN(C)c1ccc(/C=N/Nc2nc(N)nc(N)n2)cc1 [4-(dimethylamino)-benzaldehyde-(4,6-diamino-1,3,5) triazine]		inhibitory activity on human ODC (concentration range 1 nM-1 mM, histogram FIG. 9, compared with DFMO): has inhibitory effect on human ODC activity within the concentration range of 1 nM-1 mM
N#Cc1ccc(C2Nc3cccc4cccc(c34)N2)cc1		inhibitory activity on human ODC (concentration range 1 nM-5 mM, histogram FIG. 5): has the ability to inhibit human ODC activity within the range of 1 nM-5 mM, and the higher the concentration, the stronger tire inhibitory ability
